Common to all, as to format: cell-based
Assay [1] concerns A549. Put plainly: SRB cytotoxicity (anti-tumor activity) in vitro, A549. As to conditions: Homo sapiens. From the text:
(§1) Anti-Tumor (Cyto-Toxicity) Effect in vitro of the Compound According to the Present Invention
(§2) The method for detecting cyto-toxicity employed in the present experiment is Sulforhodamin B Bioassay (SRB) method, which was developed by National Cancer Institute (NCI) in the United States in 1989, for the purpose of measuring anti-tumor activity in vitro.
(§3) The tumor cells used in the experiments via SRB method are listed below:
A549: non small cell lungcarcinoma
(§4) The tumor cells listed above are all human tumor cell-lines, which were distributed from NCI in the United States and subcultured in Korea Chemical Institute. As a culture medium, RPMI 1640 culture medium supplemented with 5% FBS (fetal bovine serum) was used. Cultivation was performed in an 5% CO2 incubator with constant temperature (37° C.) and humidity. The subculture was carried out every three or four days, and a solution of 0.25% tyrosine and 3 mM trans-1,2-diaminocyclohexane-n,n,n,n-tetracetic acid (CDTA) dissolved in PBS (phosphate buffered saline) was used in order to release cells from the surface of the container.
(§5) The test compound synthesized according to the present invention was diluted to have a concentration of 30.0 μg/ml, 10.0 μg/ml, 3.0 μg/ml, 1.0 μg/ml, 0.3 μg/ml and 0.1 μg/ml, respectively, and the cyto-toxicity (anti-tumor activity) of the compound was measured. The maximum concentration of the sample was not more than 30.0 μg/ml. In order to prepare the samples for detection, DMSO (dimethylsulfoxide) was used, if necessary. The concentration of DMSO added was not more than 0.5%. Before added to the tumor cells, the sample solution, which was diluted via several steps, is filtered through a Millipore filter. In a sterile condition, the sample for detecting cyto-toxicity was prepared by means of SRB method using human tumor cell-lines such as A549, SK-OV-3, SK-MEL-2, XF498 and HCT15.
(§6) The subcultured tumor cells were released from the surface of instrument by using tyrosine-CDTA solution, and then charged on a 96-well flat bottom microplate to make the cell number 5×10^3 (A549, HCT15), 1×10^4 (SK-MEL-2, XF498) and 2×10^4 (SK-OV-3) for each cell. The tumor cells are attached on the bottom by cultivating in a CO2 incubator. After removing the culture medium by using an aspirator, the medium is eliminated by using log dose of six concentrations. To each well, 100 μl of 10% TCA (trichloroacetic acid) is added, and the plate was left for 1 hour at 4° C. to fix the cells on the bottom surface of the plate.
(§7) Then, the plate was washed with distilled water 5-6 times to completely remove the residual TCA solution, and dried up at room temperature. To each well of the completely dried plate, 100 μl of dye solution, in which 0.4% SRB solution was dissolved, was added to dye the cells for 30 minutes, and the cells were washed with 1% acetic acid to remove excess SRB which was not combined with the cells. The dyed cell plates were dried at room temperature, and 100 μl of 10 mM trisma base solution was added to each well. The solution was mixed by a titer plate shaker for 10 minutes to elute the dye solution. Then, the absorbance at 520 nm was measured by using a microplate reader.
(§8) In order to calculate the cyto-toxicity (anti-tumor activity) of the samples on tumor cells, the number of tumor cells at the point of adding the sample (Tz, zero time), the number of cells when only an excess amount of culture medium was added instead of the sample and cultured for 48 hours (C, control), and the number of cells when each concentration of the sample was added and cultured for 48 hours (T, test) were measured respectively. The cyto-toxicity was determined according to the following formulas:
(§9) When Tz>T: [(T-Tz)/(C-Tz)]×100
(§10) When Tz<T: [(T-Tz)/Tz]×100
(§11) From the calculated values thus obtained, ED50 (50% effective dose) [the concentration when the sample inhibits 50% of the growth of the tumor cells] was determined by the use of data regression tool of LOTUS program. […]

Assay [2] deals with SK-OV-3. Put plainly: SRB cytotoxicity (anti-tumor activity) in vitro, SK-OV-3. As to conditions: Homo sapiens, SK-OV-3 ovary adenocarcinoma, 48 hours, read-out: ED50 (the source's name).
Description: as §1, §2, §3
SK-OV-3: adenocarcinoma, ovary malignant ascites
as §4, §5, §6, §7, §8, §9, §10, §11

Assay [3] concerns SK-MEL-2. Put plainly: SRB cytotoxicity (anti-tumor activity) in vitro, SK-MEL-2. As to conditions: Homo sapiens, SK-MEL-2 malignant melanoma, 48 hours, read-out: ED50 (the source's name).
Description: as §1, §2, §3
SK-MEL-2: malignant melanoma, metastasis to skin of thigh
as §4, §5, §6, §7, §8, §9, §10, §11

The test system of assay [4] is XF498. In words: SRB cytotoxicity (anti-tumor activity) in vitro, XF498. As to conditions: Homo sapiens, XF498 central nerve system tumor, 48 hours, read-out: ED50 (the source's name).
Description: as §1, §2, §3
XF498: central nerve system tumor
as §4, §5, §6, §7, §8, §9, §10, §11

The test system of assay [5] is HCT15. Put plainly: SRB cytotoxicity (anti-tumor activity) in vitro, HCT15. Conditions: Homo sapiens, HCT-15, HCT15 colon adenocarcinoma, 48 hours, read-out: ED50 (the source's name).
Description: as §1, §2, §3
HCT15: colon adenocarcinoma
as §4, §5, §6, §7, §8, §9, §10, §11

[6] abbreviates: A549 non small cell lung carcinoma, SRB, 48 hours, read-out: ED50 (the source's name).

Molecules are shown by their SMILES. Read-outs that look alike come from different tables or passages of the source.

In the case of `CC(=O)OCC1(c2ccc(C)cc2OC(C)=O)CO1` (stereo not drawn) [Compound 14-8, 10-Acetoxy-8,9-epoxythymol acetate], the IC50 in assay [1] (setting [6]) was found to be 51.2 µM; in assay [2], 12.6 µM; in assay [3], 14.9 µM; in assay [4], 45.5 µM; in assay [5], 13.3 µM.
`CC(=O)Oc1ccc(C2(COC(=O)Cc3ccccc3)CO2)c(OC(C)=O)c1` (stereo not drawn) [Compound 27-1, 2-(2',4'-Diacetoxyphenyl)-3-phenylacetoxy-1,2-epoxypropane]: the IC50 in assay [1] (A549, 48 h, read-out: ED50) turned out to be 30.6 µM; in assay [2], 2.9 µM; in assay [3], 4.5 µM; in assay [4] it was 4.7 µM; in assay [5], 3 µM.
Regarding `CC(=O)Oc1cc(C)ccc1C(O)(CO)COC(=O)c1ccccc1` (stereo not drawn) [Compound 15-5, 10-Benzoxy-8,9-dihydroxythymol acetate], the IC50 was more than 100 µM in assay [1] (setting [6]); 35.1 µM in assay [2]; 16.6 µM in assay [3]; 60.4 µM in assay [4]; 12.7 µM in assay [5].
`C=C(CO)c1ccc(C)cc1OCc1ccc(C)cc1` [Compound 35-2, 2-(2-(4'-Methylbenzyloxy)-4-methylphenyl)-prop-2-ene-1-ol]: the IC50 in assay [1] (setting [6]) was found to be 10.9 µM; in assay [2] it was 9.6 µM; in assay [3], 8.8 µM; in assay [4], 7.2 µM; in assay [5], 9.1 µM.
With `COc1ccc(CC(=O)OCC(O)(CO)c2ccc(C)cc2OC(C)=O)cc1` (stereo not drawn) [Compound 15-4, 10-(4-Methoxyphenylacetoxy)-8,9-dihydroxythymol acetate], the IC50 was more than 100 µM in assay [1] (setting [6]); 21.3 µM in assay [2]; 12 µM in assay [3]; 55.7 µM in assay [4]; 11.2 µM in assay [5].
Taken in the same sequence, the figures for `CC(=O)OCC1(c2ccc(OC(C)=O)cc2OC(C)=O)CO1` (stereo not drawn) [Compound 27-5, 2-(2',4'-Diacetoxyphenyl)-3-acetoxy-1,2-epoxypropane] were 18.6 µM, 2.9 µM, 4.8 µM, 5 µM and 1.4 µM.
In the same order, the values of `C=C(CO)c1ccc(C)cc1OS(=O)(=O)c1ccc(C)cc1` [Compound 35-3, 2-(2-(4'-Toluenesulfoxy)-4-methylphenyl)-prop-2-ene-1-ol] are 13.1 µM, 14.6 µM, 17.9 µM, 14 µM and 13.9 µM.
As to `C=C(CO)c1ccc(C)cc1OCc1ccc(OC)cc1` [Compound 35-1], the IC50 in assay [1] (setting [6]) stood at 10.6 µM; in assay [2], 13.1 µM; in assay [3], 12.7 µM; in assay [4] it was 11.8 µM; in assay [5], 12.1 µM.
Regarding `CC(=O)Oc1ccccc1C1(COC(=O)Cc2ccccc2)CO1` (stereo not drawn) [Compound 33-1], the IC50 worked out at 42.8 µM in assay [1] (A549, 48 h, read-out: ED50); 11.5 µM in assay [2]; 9.3 µM in assay [3]; 9.8 µM in assay [4]; 10.4 µM in assay [5].
Taken in the same sequence, the figures for `Cc1ccc(C2(COC(=O)Cc3ccccc3)CO2)c(OC(=O)C(C)C)c1` (stereo not drawn) [Compound 11-1, 10-Phenylacetoxy-8,9-epoxythymol isobutyrate] were 35.5 µM, 7.9 µM, 10.5 µM, 32.5 µM and 9.5 µM.
In the case of `Cc1ccc(C2(COC(=O)C(C)C)CO2)c(OC(=O)C(C)C)c1` (stereo not drawn) [Compound 11, 10-isobutyryloxy-8,9-epoxythymol isobutyrate], the IC50 in assay [1] (setting [6]) was found to be 40.5 µM; in assay [2] it was 8.3 µM; in assay [3], 11.6 µM; in assay [4], 37.2 µM; in assay [5], 10.8 µM.
In the same order, the values of `CC(=O)Oc1cc(C)ccc1C(O)(CO)COC(=O)Cc1ccc([N+](=O)[O-])cc1` (stereo not drawn) [Compound 15-2, 10-(4-Nitrophenylacetoxy)-8,9-dihydroxythymol acetate] are more than 100 µM, 25.8 µM, 12.8 µM, 45.1 µM and 20.2 µM.
As to `Cc1ccc(C2(COC(=O)Cc3ccc(F)cc3)CO2)c(OC(=O)C(C)C)c1` (stereo not drawn) [Compound 11-3, 10-(4-Fluorophenylacetoxy)-8,9-epoxythymol isobutyrate], the IC50 in assay [1] (setting [6]) is 10.7 µM; in assay [2], 1 µM; in assay [3], 3.7 µM; in assay [4] it was 3.1 µM; in assay [5] it was 0.6 µM.
Taken in the same sequence, the figures for `CC(=O)Oc1ccccc1C1(COC(=O)c2ccccc2)CO1` (stereo not drawn) [Compound 33-5] were 43.3 µM, 9.9 µM, 8.5 µM, 6.2 µM and 7 µM.
In the same order, the values of `CC(=O)Oc1cc(C)ccc1C1(COC(=O)Cc2ccc([N+](=O)[O-])cc2)CO1` (stereo not drawn) [Compound 14-3, 10-(4-Nitrophenylacetoxy)-8,9-epoxythymol acetate] are 38.3 µM, 25.6 µM, 11 µM, 35.4 µM and 10.6 µM.
In the same order, the values of `Cc1ccc(C(O)(CO)COC(=O)Cc2ccc(F)cc2)c(OC(=O)C(C)C)c1` (stereo not drawn) [Compound 15-8, 10-(4-Fluorophenylacetoxy)-8,9-dihydroxythymol isobutyrate] are more than 100 µM, 24.2 µM, 10.8 µM, 55.9 µM and 12.2 µM.
Take `Cc1ccc(C2(COC(=O)Cc3ccc([N+](=O)[O-])cc3)CO2)c(OC(=O)C(C)C)c1` (stereo not drawn) [Compound 11-2, 10-(4-Nitrophenylacetoxy)-8,9-epoxythymol isobutyrate]: the IC50 in assay [1] (setting [6]) came to 32.1 µM; in assay [2], 14 µM; in assay [3], 9.9 µM; in assay [4], 28.4 µM; in assay [5] it was 8.7 µM.
On to `CC(=O)Oc1cc(C)ccc1C(O)(CO)COC(=O)Cc1ccccc1` (stereo not drawn) [Compound 15-1, 10-Phenylacetoxy-8,9-dihydroxythymol acetate], for which the IC50 was more than 100 µM in assay [1] (A549, 48 h, read-out: ED50); 39.9 µM in assay [2]; 14.8 µM in assay [3]; 59.9 µM in assay [4]; 11.6 µM in assay [5].
Regarding `C=C(CO)c1ccc(C)cc1OCc1ccc([N+](=O)[O-])cc1` [Compound 35, 2-(2-(4'-nitrobenzyloxy)-4-methylphenyl)-prop-2-ene-1-ol], the IC50 in assay [1] (setting [6]) is 4.6 µM; in assay [2] it was 0.3 µM; in assay [3], 9.1 µM; in assay [4] it was 5.5 µM; in assay [5], 8.7 µM.
As to `C=C(COS(=O)(=O)c1ccc(OC)cc1)c1ccc(C)cc1OC(C)=O` [13'-3, 10-(4-Methoxybenzenesulfoxy)-8,9-methylenethymol acetate], the IC50 in assay [1] (setting [6]) is 28.2 µM; in assay [2] it was 27.4 µM; in assay [3], 8.4 µM; in assay [5], 2.6 µM.

Values taken from US6255517A, “Thymol derivatives having anti-tumor activity, and anti-cancer agent comprising the same” (Zee; Ok Pyo, priority 1998, dated 2001).
